Measurements published in patent US20230019491A1, “PYRIMIDINE TBK/IKKe INHIBITOR COMPOUNDS AND USES THEREOF” (Merck Patent GmbH, priority 2017, published 2023).
pIC50: −log10 of the molar value. Where a name gives a salt, the structure may show the parent alone.

Key:
IKKε = molecular target: T1, IKKε (Homo sapiens, UniProt Q14164); assay: IKKε biochemical assay; settings: 10 point 1:4 dose response, 30 uM top concentration, 90 min at 25° C., LabChip EZ Reader II; read-out: IKKε_IC50
T1 sequence (Q14164 1-716): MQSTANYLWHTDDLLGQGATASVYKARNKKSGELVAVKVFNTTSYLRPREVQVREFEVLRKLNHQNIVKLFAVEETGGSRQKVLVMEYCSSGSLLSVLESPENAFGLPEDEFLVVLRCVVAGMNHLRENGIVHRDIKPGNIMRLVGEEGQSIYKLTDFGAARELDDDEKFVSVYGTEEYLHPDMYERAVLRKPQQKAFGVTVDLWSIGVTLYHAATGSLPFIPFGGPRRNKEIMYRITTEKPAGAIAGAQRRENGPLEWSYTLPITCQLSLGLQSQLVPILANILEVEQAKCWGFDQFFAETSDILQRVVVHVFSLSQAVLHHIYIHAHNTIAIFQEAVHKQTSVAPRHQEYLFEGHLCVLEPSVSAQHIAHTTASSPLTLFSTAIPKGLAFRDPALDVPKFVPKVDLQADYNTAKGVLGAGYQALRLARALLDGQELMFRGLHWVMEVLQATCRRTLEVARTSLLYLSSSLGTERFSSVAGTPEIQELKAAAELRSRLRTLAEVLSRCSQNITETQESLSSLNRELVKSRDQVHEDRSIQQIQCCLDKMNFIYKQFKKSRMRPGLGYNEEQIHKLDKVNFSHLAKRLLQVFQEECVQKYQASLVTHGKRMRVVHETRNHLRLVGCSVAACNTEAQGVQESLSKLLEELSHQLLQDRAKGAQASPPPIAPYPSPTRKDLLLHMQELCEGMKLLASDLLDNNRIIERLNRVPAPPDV
Summary of the method: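 Mobility-shift LabChip read-out followed a 90 min, 25° C. reaction of IKKε with substrate and test compound, with DMSO held at 1% final. Reactions were ended with stop buffer. Wells with 10 uM final staurosporine defined complete inhibition, and DMSO-only wells the uninhibited level.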

TBK1 = molecular target: T2, TBK1 (Homo sapiens, UniProt Q9UHD2); assay: TBK biochemical assay; settings: 10 point 1:4 dose response, 30 uM top concentration, 90 min at 25° C., LabChip EZ Reader II; read-out: TBK1_IC50
T2 sequence (Q9UHD2 1-729): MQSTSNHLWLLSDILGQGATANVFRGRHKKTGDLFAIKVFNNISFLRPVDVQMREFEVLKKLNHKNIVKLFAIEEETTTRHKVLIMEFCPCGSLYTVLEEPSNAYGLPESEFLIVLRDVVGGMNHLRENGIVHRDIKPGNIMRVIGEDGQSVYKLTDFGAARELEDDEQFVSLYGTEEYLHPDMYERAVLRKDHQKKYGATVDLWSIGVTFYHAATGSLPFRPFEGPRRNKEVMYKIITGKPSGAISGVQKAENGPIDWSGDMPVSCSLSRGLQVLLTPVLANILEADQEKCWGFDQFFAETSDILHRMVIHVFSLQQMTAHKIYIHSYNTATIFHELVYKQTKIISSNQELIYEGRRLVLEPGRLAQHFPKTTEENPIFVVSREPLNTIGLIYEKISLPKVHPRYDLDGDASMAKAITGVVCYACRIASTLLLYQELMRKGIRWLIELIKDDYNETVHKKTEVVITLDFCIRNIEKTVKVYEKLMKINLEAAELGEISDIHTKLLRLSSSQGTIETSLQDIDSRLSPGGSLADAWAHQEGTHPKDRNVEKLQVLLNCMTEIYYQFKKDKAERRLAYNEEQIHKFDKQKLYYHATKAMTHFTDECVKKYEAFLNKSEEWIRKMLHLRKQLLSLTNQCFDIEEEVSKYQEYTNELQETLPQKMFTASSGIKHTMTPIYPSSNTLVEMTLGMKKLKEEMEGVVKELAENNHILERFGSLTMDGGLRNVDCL
Summary of the method: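 Read-out was a Caliper LabChip mobility-shift assay, run after a 90-min, 25 °C reaction of TBK1 with substrate and compounds, quenched with stop buffer. Control wells received staurosporine at 10 uM final.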

pIC50 (IKKε) | pIC50 (TBK1) | Structure (SMILES)
> 7.00 | > 7.00 | C[C@H](O)C(=O)N1CCC(Oc2ccc(-c3ccnc(Nc4ccc(N5CCN(C6COC6)CC5)cc4)n3)cc2C#N)C(F)(F)C1 (stereo partly drawn) [Example 138, 2-([3,3-difluoro-1-[(2S)-2-hydroxypropanoyl]piperidin-4-yl]oxy)-5-[2-([4-[4-(oxetan-3-yl)piperazin-1-yl]phenyl]amino)pyrimidin-4-yl]benzonitrile]
> 7.00 | > 7.00 | C[C@@H](O)C(=O)N1CC[C@H](Oc2ccc(-c3ccnc(Nc4ccc(N5CCN(C6COC6)CC5)cc4)n3)cc2C#N)C(F)(F)C1 [Example 142, 2-[[(4S)-3,3-difluoro-1-[(2R)-2-hydroxypropanoyl]piperidin-4-yl]oxy]-5-[2-([4-[4-(oxetan-3-yl)piperazin-1-yl]phenyl]amino)pyrimidin-4-yl]benzonitrile]
> 7.00 | > 7.00 | COc1nc(Nc2nccc(-c3ccc(OC4CCNCC4(F)F)c(C#N)c3)n2)ccc1C1CCN(C)CC1 (stereo not drawn) [Example 144, 2-(3,3-Difluoro-piperidin-4-yloxy)-5-[2-(2-methoxy-1′-methyl-1′,2′,3′,4′,5′,6′-hexahydro-[3,4′]bipyridinyl-6-ylamino)-pyrimidin-4-yl]-benzonitrile]
> 7.00 | > 7.00 | C[C@@H](O)C(=O)N1CCC(Oc2ccc(-c3ccnc(Nc4ccc(C5CCN(C)CC5)cc4)n3)cc2C#N)C(F)(F)C1 (stereo partly drawn) [Example 145, 2-([3,3-difluoro-1-[(2R)-2-hydroxypropanoyl]piperidin-4-yl]oxy)-5-(2-[[4-(1-methylpiperidin-4-yl)phenyl]amino]pyrimidin-4-yl)benzonitrile]
> 7.00 | > 7.00 | COc1nc(Nc2nccc(-c3ccc(OC4CCN(C(=O)[C@@H](C)O)CC4(F)F)c(C#N)c3)n2)ccc1C1CCN(C)CC1 (stereo partly drawn) [Example 147, 2-([3,3-difluoro-1-[(2R)-2-hydroxypropanoyl]piperidin-4-yl]oxy)-5-(2-[[6-methoxy-5-(1-methylpiperidin-4-yl)pyridin-2-yl]amino]pyrimidin-4-yl)benzonitrile]
> 7.00 | > 7.00 | CN1CCC(c2ccc(Nc3nccc(-c4ccc(OC5CCN(C(=O)CO)CC5(F)F)c(C#N)c4)n3)cc2)CC1 (stereo not drawn) [Example 148, 2-[[3,3-difluoro-1-(2-hydroxyacetyl)piperidin-4-yl]oxy]-5-(2-[[4-(1-methylpiperidin-4-yl)phenyl]amino]pyrimidin-4-yl)benzonitrile]
> 7.00 | > 7.00 | N#Cc1cc(-c2ccnc(Nc3ccc(C4CCN(C5COC5)CC4)cc3)n2)ccc1OC1CCOCC1 [Example 151, 5-{2-[4-(1-Oxetan-3-yl-piperidin-4-yl)-phenylamino]-pyrimidin-4-yl}-2-(tetrahydro-pyran-4-yloxy)-benzonitrile]

Further lines, the compound ahead of its results:

Structure (SMILES) | pIC50 (IKKε) | pIC50 (TBK1)
N#Cc1cc(-c2ccnc(Nc3ccc(N4CCN(C5COC5)CC4)cc3)n2)ccc1OC1CCNCC1(F)F (stereo not drawn) [Example 136, 2-[(3,3-difluoropiperidin-4-yl)oxy]-5-[2-([4-[4-(oxetan-3-yl)piperazin-1-yl]phenyl]amino)pyrimidin-4-yl]benzonitrile] | > 7.00 | > 7.00
N#Cc1cc(-c2ccnc(Nc3ccc(N4CCN(C5COC5)CC4)cc3)n2)ccc1OC1CCN(C(=O)CO)CC1(F)F (stereo not drawn) [Example 137, 2-[[3,3-difluoro-1-(2-hydroxyacetyl)piperidin-4-yl]oxy]-5-[2-([4-[4-(oxetan-3-yl)piperazin-1-yl]phenyl]amino)pyrimidin-4-yl]benzonitrile] | > 7.00 | > 7.00
C[C@H](O)C(=O)N1CC[C@H](Oc2ccc(-c3ccnc(Nc4ccc(N5CCN(C6COC6)CC5)cc4)n3)cc2C#N)C(F)(F)C1 [Example 139, 2-[[(4S)-3,3-difluoro-1-[(2S)-2-hydroxypropanoyl]piperidin-4-yl]oxy]-5-[2-([4-[4-(oxetan-3-yl)piperazin-1-yl]phenyl]amino)pyrimidin-4-yl]benzonitrile] | > 7.00 | > 7.00
C[C@H](O)C(=O)N1CC[C@@H](Oc2ccc(-c3ccnc(Nc4ccc(N5CCN(C6COC6)CC5)cc4)n3)cc2C#N)C(F)(F)C1 [Example 140, 2-[[(4R)-3,3-difluoro-1-[(2S)-2-hydroxypropanoyl]piperidin-4-yl]oxy]-5-[2-([4-[4-(oxetan-3-yl)piperazin-1-yl]phenyl]amino)pyrimidin-4-yl]benzonitrile] | > 7.00 | > 7.00
C[C@@H](O)C(=O)N1CCC(Oc2ccc(-c3ccnc(Nc4ccc(N5CCN(C6COC6)CC5)cc4)n3)cc2C#N)C(F)(F)C1 (stereo partly drawn) [Example 141, 2-([3,3-difluoro-1-[(2R)-2-hydroxypropanoyl]piperidin-4-yl]oxy)-5-[2-([4-[4-(oxetan-3-yl)piperazin-1-yl]phenyl]amino)pyrimidin-4-yl]benzonitrile] | > 7.00 | > 7.00
COc1nc(Nc2nccc(-c3ccc(OC4CCN(C(=O)C(C)O)CC4(F)F)c(C#N)c3)n2)ccc1C1CCN(C)CC1 (stereo not drawn) [Example 146, 2-[[3,3-difluoro-1-(2-hydroxypropanoyl)piperidin-4-yl]oxy]-5-(2-[[6-methoxy-5-(1-methylpiperidin-4-yl)pyridin-2-yl]amino]pyrimidin-4-yl)benzonitrile] | > 7.00 | > 7.00
CC(O)C(=O)N1CCC(Oc2ccc(-c3ccnc(Nc4ccc(C5CCN(C)CC5)cc4)n3)cc2C#N)C(F)(F)C1 (stereo not drawn) [Example 149, 2-[[3,3-difluoro-1-(2-hydroxypropanoyl)piperidin-4-yl]oxy]-5-(2-[[4-(1-methylpiperidin-4-yl)phenyl]amino]pyrimidin-4-yl)benzonitrile] | > 7.00 | > 7.00
N#Cc1cc(-c2ccnc(Nc3ccc(C4CCN(C5COC5)CC4)cc3)n2)ccc1OC1CCNCC1(F)F (stereo not drawn) [Example 150, 2-(3,3-Difluoro-piperidin-4-yloxy)-5-{2-[4-(1-oxetan-3-yl-piperidin-4-yl)-phenylamino]-pyrimidin-4-yl}-benzonitrile hydrochloride] | > 7.00 | > 7.00
COc1nc(Nc2nccc(-c3ccc(OC4CCN(C(=O)[C@H](C)O)CC4(F)F)c(C#N)c3)n2)ccc1C1CCN(C2COC2)CC1 (stereo partly drawn) [Example 152, 2-[3,3-Difluoro-1-((S)-2-hydroxy-propionyl)-piperidin-4-yloxy]-5-[2-(2-methoxy-1′-oxetan-3-yl-1′,2′,3′,4′,5′,6′-hexahydro-[3,4′]bipyridinyl-6-ylamino)-pyrimidin-4-yl]-benzonitrile] | > 7.00 | > 7.00
COc1nc(Nc2nccc(-c3ccc(OC4CCN(C(=O)[C@@H](O)CO)CC4(F)F)c(C#N)c3)n2)ccc1C1CCN(C2COC2)CC1 (stereo partly drawn) [Example 153, 2-[1-((S)-2,3-Dihydroxy-propionyl)-3,3-difluoro-piperidin-4-yloxy]-5-[2-(2-methoxy-1′-oxetan-3-yl-1′,2′,3′,4′,5′,6′-hexahydro-[3,4′]bipyridinyl-6-ylamino)-pyrimidin-4-yl]-benzonitrile] | > 7.00 | > 7.00
COc1nc(Nc2nccc(-c3ccc(OC4CCN(C(=O)CO)CC4(F)F)c(C#N)c3)n2)ccc1C1CCN(C2COC2)CC1 (stereo not drawn) [Example 154, 2-[3,3-Difluoro-1-(2-hydroxy-acetyl)-piperidin-4-yloxy]-5-[2-(2-methoxy-1′-oxetan-3-yl-1′,2′,3′,4′,5′,6′-hexahydro-[3,4′]bipyridinyl-6-ylamino)-pyrimidin-4-yl]-benzonitrile] | > 7.00 | > 7.00
